Test in data set [1]: not given
This is another data set of the same source.

Each structure is given as a SMILES string.

In general, logP refers to a log measure of how a compound divides between an organic and an aqueous phase. Higher therefore signals higher lipophilicity. A word on the logD: it is the decadic logarithm of the distribution of all forms, ionised or not, between an organic phase and buffer at a given pH. A higher logD goes with higher lipophilicity.

In turn, `Cc1ccc2c(c1)C(N1CCN(CCO)CC1)CC2c1ccc(F)cc1` (stereo unspecified) showed a logP of 3.57.
Regarding `CC(=O)c1c(C)n(C)c2ccccc12`, the logP amounted to 2.03.
Same read-out and setting: the value for `N=C1C=CC(=C(c2ccc(N)cc2)c2ccc(N)cc2)C=C1` was -0.21; that for `CC(C)=CC1C(C(=O)OCc2ccc(C)cc2C)C1(C)C` (stereo unspecified) was 4.5; that for `CCN1CCCC1CNC(=O)c1cc(NS(N)(=O)=O)c(Cl)cc1OC` (stereo unspecified) was 2.66.
On to `O=C(Nc1ccc(Cl)cc1)c1cccnc1`, for which the log partition coefficient (logP) in data set [1] was 2.53.
Same read-out and setting: the figure for `Cn1c(N)nc2ccc(C#N)cc21` is 1.29.
`O=C1Nc2ccccc2C1=O`: the logD in data set [1] (pH 7.4) was 0.83.
Still for that read-out and setting: the figure for `CCc1ncc([N+](=O)[O-])n1C` is 0.62; for `Fc1cccc2cccnc12` it is 2.19.
Turning to `O=[N+]([O-])c1ccc(NN=C(C(F)(F)F)C(F)(F)F)c([N+](=O)[O-])c1`, the logD in data set [1] (pH 4.0) was determined as 3.8.
As for `O=C1CC(Sc2nc3ccccc3s2)N1` (stereo unspecified), in data set [1], the logP is 2.3.
Still for that read-out and setting: the value for `CC(C)Nc1nc(N)nc(SC(F)F)n1` was 2.68; that for `CN(C)C(CSS(=O)(=O)c1ccccc1)CSS(=O)(=O)c1ccccc1` was 3.36.
As for `ICCI`, in data set [1] (pH 7.4), the logD turned out to be 2.71.
Take `Cn1c(N)nc2cc(Cl)c(Cl)cc21`: the logP in data set [1] came to 2.98.
In data set [1] (pH 13.0), `c1ccc(C23CCN(CC2)CC3)cc1` registered a logD of 2.54.
In data set [1], `Clc1c(Cl)c(Cl)c2ccccc2c1Cl` came in with a logP of 5.75.
On the same count and under the same terms, the value for `COP(=S)(OC)SCC(=O)N(C)C=O` was 1.48.
On the same count and under the same terms, the figure for `CCOC(=O)COC(=O)c1cc(Oc2ccc(C(F)(F)F)cc2Cl)ccc1[N+](=O)[O-]` is 3.65.
As for `COC(=O)NCCn1c([N+](=O)[O-])cnc1C`, the logD in data set [1] (pH 7.4) is 0.02.
In turn, `CC(C)NC(C)C` displayed a logP in data set [1] of 1.4.
The same measure, in the same setting: the figure for `COC(=O)c1cc(Cl)ccc1N` is 3.3.
On the same count and under the same terms, the figure for `CC(Cl)[N+](=O)[O-]` (stereo unspecified) is 1.1; for `O=C(O)Cc1ccccc1Nc1c(F)cccc1Cl` it is 3.8; for `O=Nc1ccc(NO)cc1` it is 1.49.
Same read-out and setting: the figure for `CCC(C)C(C)(C)C(N)=O` (stereo unspecified) is 1.81.
As to `CC(C)(C)c1ccc(N)cc1`, the logD in data set [1] (pH 7.4) amounted to 2.7.
In data set [1], `CC(C)(C)C(=O)C(C)(C)C` came in with a lipophilicity (logP) of 3.
Same read-out and setting: the figure for `c1ccc2c(c1)CCCC2` is 3.49; for `Cc1ccc(O)c(-n2nc3ccccc3n2)c1` it is 4.31.
Molecule `CC(C)CN(CC(O)COc1ccccc1)CC(O)COc1ccccc1` (stereo unspecified) displayed a logD in data set [1] (pH 13.0) of 3.46.
In data set [1] (pH 13.0), `NNc1ccc([N+](=O)[O-])cc1` registered a logD of 1.41.
Regarding `Cc1cc2c3ccccc3nc-2[nH]c1N`, the logD in data set [1] (pH 7.4) came to 2.9.
Consider `Cc1cccc(CC(=O)O)c1Nc1c(Cl)cccc1Cl`, for which, in data set [1], the logP worked out at 4.93.
The same measure, in the same setting: the figure for `COC(=O)c1ccc(Cl)cc1` is 2.76; for `[O-][n+]1ccccc1` it is -1.2.
Regarding `CN(C1CCCCC1)C1CCCCC1`, the logD in data set [1] (pH 13.0) is 3.71.
Regarding `c1ccc(COCc2ccccc2)cc1`, in data set [1], the logP is 3.31.
Regarding `CN1CCCNCC1`, in data set [1] (pH 13.0), the logD was -0.4.
In data set [1], `CN1C(=O)CCC1=O` registered a logP of -0.95.
In turn, `CCOC(=O)C(F)F` came in with a logP in data set [1] of 0.87.
The same measure, in the same setting: the figure for `CNC(=O)c1ccccc1C(=O)c1ccccc1` is 2.09.
Consider `c1ccc(C23CCCN2CCO3)cc1` (stereo unspecified), for which the logD in data set [1] (pH 7.4) came to 1.04.
In turn, `C#CCN(CC#C)CC#C` had a logP in data set [1] of 1.27.
The molecule `COc1c2c(cc3c1-c1ccc(OC)c(=O)cc1C(NC(C)=O)CC3)OCO2` (stereo unspecified) came in with a logD in data set [1] (pH 7.0) of 1.6.
With `CC1CN1C1=CC(=O)C(N2CC2C)=CC1=O` (stereo unspecified), the log partition coefficient (logP) in data set [1] worked out at 1.07.
Regarding `NC1CC1`, the logP in data set [1] was found to be 0.07.
As for `Nc1ccc2cc3ccc(N)cc3nc2c1`, the pH-dependent lipophilicity (logD) in data set [1] (pH 12.0) amounted to 1.83.
In data set [1] (pH 7.4), `CCCc1ccc([N+](=O)[O-])cc1` returned a logD of 3.45.
In data set [1], `FC(F)(F)c1cccc(C(F)(F)F)c1` came in with a logP of 3.83.
Molecule `CC(=O)NCCCOc1cccc(CN2CCCCC2)c1` returned a logD in data set [1] (pH 11.3) of 2.15.
`Clc1ccc(C2(Cn3cncn3)OCC3(CCC4OC4C3)CO2)c(Cl)c1` (stereo unspecified): the logD in data set [1] (pH 7.0) amounted to 1.87.
Regarding `CNCCNC`, in data set [1] (pH 13.0), the logD was -0.62.
`Cn1c([N+](=O)[O-])cnc1COc1ccc(Cl)cc1` returned a log distribution coefficient (logD) in data set [1] (pH 7.4) of 1.8.
`OCCCF` had a logP in data set [1] of -0.28.
In data set [1], `CCOC(=O)C(C(=O)OCC)=C(C(=O)OCC)C(=O)OCC` showed a logP of 2.63.
Regarding `CCOc1ccc(C(C)(C)COCc2cccc(Oc3ccccc3)c2)cc1`, the logP in data set [1] worked out at 7.05.
On to `NCCCN1CCN(CCCN)CC1`, for which the logD in data set [1] (pH 13.0) is -1.43.
With `ClCC#CCCl`, the logP in data set [1] stood at 2.01.
The same measure, in the same setting: the figure for `Cc1ccc(/N=C/N(C)/C=N/c2ccc(C)cc2C)c(C)c1` is 5.5; for `O=C(O)CCC(=O)c1ccc(N2Cc3ccccc3C2=O)cc1` it is 1.92.
In data set [1] (pH 7.4), `Nc1ncc(Cc2ccccc2O)c(N)n1` came in with a logD of 0.82.
In turn, `COc1c(C(C)C)cc(Cc2cnc(N)nc2N)cc1C(C)C` registered a logD in data set [1] (pH 13.0) of 3.47.
In data set [1] (pH 11.0), `OCCCOc1cccc(CN2CCCCC2)c1` gave a logD of 2.78.
As to `O=C1CC(Sc2ccncc2)N1` (stereo unspecified), the lipophilicity (logP) in data set [1] is 0.61.

(Values after the SangsterLogP compilation.)
